Reference: patent US11279733B2, “Peptide antibiotics” (priority 2017, dated 2022)
Values after ≈ are worked out from the molar mass of the structure shown. Read-outs that look alike come from different tables or passages of the source. Positions of bridges follow the written chain, without caps; N, C: chain ends. Non-standard residues stand in square brackets, D forms with d. Residues, ends and D or L forms follow the SMILES beside them. *: point of attachment. X3 = CCCCCCCCCCCC(O)CC(=O)*; Decanoyl = CCCCCCCCCC(=O)*; dDab = NCC[C@@H](N)C(=O)O; Dab = NCC[C@H](N)C(=O)O

Experiments:
A. baumannii ATCC 19606 = settings: ATCC 19606
Procedure: (§1) Bacteria were either obtained from American Type Culture Collection (ATCC; Manassas, Va., USA) or independent academic clinical isolate collections, as listed in Table 18 below. Bacteria were cultured in Nutrient broth (NB; Bacto Laboratories, catalogue No. 234000) or Mueller Hinton broth (MHB; Bacto Laboratories, catalogue No. 211443) at 37° C. overnight with shaking (˜180 RPM). A sample of each culture was then diluted 50-fold in fresh MHB and incubated at 37° C. for 2-3 h with shaking (˜180 RPM). Compound stock solutions were prepared as 0.64 mg/mL or 2.56 mg/mL in water. The compounds, at twice the final desired concentration, were serially diluted 2-fold across the wells of 96-well plates (Polystyrene, Corning, catalogue No. 3370). Mid-log phase bacterial cultures (after 2-3 h incubation) were diluted to a final concentration of 1×10^6 colony forming units (CFU)/mL, and 50 μL was added to each well giving a final cell density of 5×10^5 and a compound concentration range of 32 μg/mL to 0.015 μg/mL (128-0.06 μg/mL against P. aeruginosa PA9704).

[1] = test system: S. aureus ATCC 25923, MSSA; settings: ATCC 25923
Procedure: as §1

A. baumannii GN_093 PmxR = settings: GN 093 PmxR
Procedure: as §1

[2] = test system: P. aeruginosa GN_043, PmxR
Procedure: as §1

E. coli ATCC 25922 = settings: ATCC 25922
Procedure: as §1

[3] = test system: K. pneumoniae ATCC 700603, MDR; settings: ATCC 700603
Procedure: as §1

K. pneumoniae ATCC 13883 = settings: ATCC 13883
Procedure: as §1

[4] = test system: K. pneumoniae GN_106, PmxR; settings: GN 106, PmxR
Procedure: as §1

[5] = test system: K. pneumoniae GN_102 PmxR; settings: GN 102 PmxR
Procedure: as §1

P. aeruginosa ATCC 27853 = settings: ATCC 27853
Procedure: as §1

[6] = test system: P. aeruginosa GN_105, PmxR; settings: GN 105, PmxR
Procedure: as §1

[7] = test system: K. pneumoniae ATCC BAA-2146, NDM-1 pos; settings: ATCC BAA-2146
Procedure: as §1

| SMILES | MIC A. baumannii ATCC 19606 (A. baumannii ATCC 19606) [µg/mL] | MIC S. aureus ATCC 25923, MSSA [1] [µg/mL] | MIC A. baumannii GN_093 PmxR (A. baumannii GN_093 PmxR) [µg/mL] | MIC P. aeruginosa GN_043, PmxR [2] [µg/mL] | MIC E. coli ATCC 25922 (E. coli ATCC 25922) [µg/mL] | MIC K. pneumoniae ATCC 700603, MDR [3] [µg/mL] | MIC K. pneumoniae ATCC 13883 (K. pneumoniae ATCC 13883) [µg/mL] | MIC K. pneumoniae GN_106, PmxR [4] [µg/mL] | MIC K. pneumoniae GN_102 PmxR [5] [µg/mL] | MIC P. aeruginosa ATCC 27853 (P. aeruginosa ATCC 27853) [µg/mL] | MIC P. aeruginosa GN_105, PmxR [6] [µg/mL] | MIC K. pneumoniae ATCC BAA-2146, NDM-1 pos [7] [µg/mL] | MIC, A. baumannii ATCC 19606 (A. baumannii ATCC 19606) [µg/mL] | MIC, S. aureus ATCC 25923, MSSA [1] [µg/mL] | MIC P. aeruginosa GN_043, PmxR ([2]; Table 6, polymyxin-resistant) [µg/mL] | MIC, E. coli ATCC 25922 (E. coli ATCC 25922) [µg/mL] | MIC, K. pneumoniae ATCC 700603, MDR [3] [µg/mL] | MIC, K. pneumoniae ATCC 13883 (K. pneumoniae ATCC 13883) [µg/mL] | MIC, P. aeruginosa ATCC 27853 (P. aeruginosa ATCC 27853) [µg/mL] | MIC, K. pneumoniae ATCC BAA-2146, NDM-1 pos [7] [µg/mL] |
| --- | --- | --- | --- | --- | --- | --- | --- | --- | --- | --- | --- | --- | --- | --- | --- | --- | --- | --- | --- | --- |
| CCCCCCCCCCCC(O)CC(=O)N[C@H](CCN)C(=O)N[C@H]1CCNC(=O)[C@H](CC(C)C)NC(=O)[C@H](CCN)NC(=O)[C@H](CCN)NC(=O)[C@H](CC(C)C)NC(=O)[C@@H](Cc2ccccc2)NC(=O)[C@H](CCN)NC1=O (stereo partly drawn) [compound 5015, 3OH-nC13CO-D-Dab-cyc[L-Dab-L-Dab-D-Phe-L-Leu-L-Dab-L-Dab-L-Leu]] (X3-[dDab][Dab][Dab][dF]L[Dab][Dab]L; lactam 2-C) | 4 (≈ 3.63 µM) | 4 (≈ 3.63 µM) | 8 (≈ 7.27 µM) | 4 (≈ 3.63 µM) | 4 (≈ 3.63 µM) | 8 (≈ 7.27 µM) | 4 (≈ 3.63 µM) | 4 (≈ 3.63 µM) | 8 (≈ 7.27 µM) | 4 (≈ 3.63 µM) | 4 (≈ 3.63 µM) | 8 (≈ 7.27 µM) |  |  |  |  |  |  |  |  |
| CCCCCCCCCC(=O)N[C@H](CCN)C(=O)N[C@H]1CCNC(=O)[C@H](CC(C)C)NC(=O)[C@H](CCN)NC(=O)[C@H](CCN)NC(=O)[C@H](CC(C)C)NC(=O)[C@@H](Cc2ccccc2)NC(=O)[C@H](CCN)NC1=O [compound 5017, nC9CO-D-Dab-cyc[L-Dab-L-Dab-D-Phe-L-Leu-L-Dab-L-Dab-L-Leu]] (Decanoyl-[dDab][Dab][Dab][dF]L[Dab][Dab]L; lactam 2-C) | 8 (≈ 7.78 µM) | 16 (≈ 15.6 µM) | 16 (≈ 15.6 µM) | 2 (≈ 1.94 µM) | 4 (≈ 3.89 µM) | 16 (≈ 15.6 µM) | 8 (≈ 7.78 µM) | 16 (≈ 15.6 µM) | 32 (≈ 31.1 µM) | 2 (≈ 1.94 µM) | 4 (≈ 3.89 µM) | 16 (≈ 15.6 µM) |  |  |  |  |  |  |  |  |
| CCCCCCCCCC(=O)N[C@@H](CCN)C(=O)N[C@H]1CCNC(=O)[C@H](CC(C)C)NC(=O)[C@H](CCN)NC(=O)[C@H](CCN)NC(=O)[C@H](CC(C)C)NC(=O)[C@@H](Cc2ccccc2)NC(=O)[C@H](CCN)NC1=O [compound 5568, nC9CO-L-Dab-cyc[L-Dab-L-Dab-D-Phe-L-Leu-L-Dab-L-Dab-L-Leu]] (Decanoyl-[Dab][Dab][Dab][dF]L[Dab][Dab]L; lactam 2-C) |  |  | >32 |  |  |  |  | 16 (≈ 15.6 µM) |  |  | 4 (≈ 3.89 µM) |  | 16 (≈ 15.6 µM) | 8 (≈ 7.78 µM) | 4 (≈ 3.89 µM) | 8 (≈ 7.78 µM) | 8 (≈ 7.78 µM) | 4 (≈ 3.89 µM) | 4 (≈ 3.89 µM) | 8 (≈ 7.78 µM) |
| CC(=O)N[C@H](CCN)C(=O)N[C@H]1CCNC(=O)[C@H](Cc2c[nH]c3ccccc23)NC(=O)[C@H](CCN)NC(=O)[C@H](CCN)NC(=O)[C@H](CC(C)C)NC(=O)[C@@H](Cc2ccccc2)NC(=O)[C@H](CCN)NC1=O [compound 8981, Ac-D-Dab-cyc[L-Dab-L-Dab-D-Phe-L-Leu-L-Dab-L-Dab-L-Trp]] (Ac-[dDab][Dab][Dab][dF]L[Dab][Dab]W; lactam 2-C) | >32 | >32 | 32 (≈ 32.3 µM) |  | 32 (≈ 32.3 µM) | 16 (≈ 16.2 µM) | >32 | >32 | >32 | 4 (≈ 4.04 µM) | >32 | 16 (≈ 16.2 µM) |  |  |  |  |  |  |  |  |
